# Test results: ChEMBL document CHEMBL5442379, “ASAP - SARS-CoV-2 nsp3 macrodomain single point” (2024)
# Target: Replicase polyprotein 1ab (Severe acute respiratory syndrome coronavirus 2) (UniProt P0DTD1)
# Description: Functional biochemical assay to identify treatments for viral infectious disease that targets SARS-COV-2 nsp3 macrodomain, whereby the mechanism of action displaces an ADP-Ribose modified peptide from the binding site. Utilizing a time-resolved fluorescence method to measure binding by reading the emitted fluorescence intensity in two wavelengths.
smiles,measurement,setting,value
O=C(Nc1ccccc1)Nc1ccc(C(=O)Nc2nnc(C(F)(F)F)[nH]2)cc1,inhibition,"Concentration 49.75 uM, Number of replicates 2.0, Standard deviation 1.534 %",-3.2%
same,inhibition,"Concentration 99.5 uM, Number of replicates 2.0, Standard deviation 0.592 %",-1.46%
O=S1(=O)CCC[C@@H](CNc2ncnc3n[nH]cc23)C1,inhibition,"Concentration 50.0 uM, Number of replicates 2.0, Standard deviation 5.989 %",4.59%
Cc1cccc(Cl)c1S(=O)(=O)Nc1cnc2[nH]ncc2c1,inhibition,"Concentration 50.0 uM, Number of replicates 2.0, Standard deviation 1.912 %",-0.254%
CC(C)n1cc(S(=O)(=O)Nc2cnc3[nH]ncc3c2)cn1,inhibition,"Concentration 50.0 uM, Number of replicates 4.0, Standard deviation 3.956 %",1.55%
O=C(Nc1ccccc1)Nc1ccc(C(=O)NC2c3cccc(O)c3CC2C(=O)O)cc1 (stereo not drawn),inhibition,"Concentration 50.0 uM, Number of replicates 2.0, Standard deviation 0.256 %",99.9%
CC(C)[C@@H](CCN(C)C(=O)c1nn2cccnc2c1Cl)Nc1ncnc2[nH]ccc12,inhibition,"Concentration 49.75 uM, Number of replicates 2.0, Standard deviation 6.794 %",0.844%
same,inhibition,"Concentration 99.5 uM, Number of replicates 2.0, Standard deviation 0.494 %",1.65%
CC[C@@H]1C[C@@H](C(=O)Nc2ncnc3[nH]c(C)c(C)c23)CCO1,inhibition,"Concentration 50.0 uM, Number of replicates 2.0, Standard deviation 1.684 %",12.1%
O=C(Nc1cnc2[nH]ncc2c1)C1CCN(c2ccc3nncn3n2)CC1,inhibition,"Concentration 50.0 uM, Number of replicates 2.0, Standard deviation 15.88 %",17%
O=C(N[C@H](Cn1cnc2cc(F)c(F)cc21)C(=O)O)c1ncnc2[nH]ccc12,inhibition,"Concentration 49.75 uM, Number of replicates 2.0, Standard deviation 5.178 %",-2.04%
same,inhibition,"Concentration 99.5 uM, Number of replicates 2.0, Standard deviation 0.435 %",8.39%
CC(C)[C@H]1CN(c2ncnc3[nH]ccc23)[C@H]1C(C)C,inhibition,"Concentration 49.75 uM, Number of replicates 2.0, Standard deviation 1.709 %",0.348%
same,inhibition,"Concentration 99.5 uM, Number of replicates 2.0, Standard deviation 1.351 %",-2.2%
CN(c1ncnc2[nH]ncc12)[C@@H](CCO)c1ccccc1,inhibition,"Concentration 49.75 uM, Number of replicates 2.0, Standard deviation 10.225 %",8.86%
same,inhibition,"Concentration 99.5 uM, Number of replicates 2.0, Standard deviation 3.705 %",5.14%
Cc1noc(CCCNC(=O)c2ncnc3[nH]ccc23)n1,inhibition,"Concentration 50.0 uM, Number of replicates 2.0, Standard deviation 1.028 %",-5.13%
CN(C)[C@@H]1CCCN(C(=O)c2cnc3c(c2)c(=O)[nH]c(=O)n3C)CC1,inhibition,"Concentration 50.0 uM, Number of replicates 2.0, Standard deviation 1.745 %",-8.97%
O=C(c1cn2ncccc2n1)N1CCC(c2ccn3ncc(C(=O)N4CCCCC4)c3c2)CC1,inhibition,"Concentration 49.75 uM, Number of replicates 2.0, Standard deviation 0.525 %",30.7%
same,inhibition,"Concentration 99.5 uM, Number of replicates 2.0, Standard deviation 6.296 %",53.8%
Cn1nc(C(=O)O)cc1C(=O)N1CCC(c2ccn3ncc(C(=O)N4CCCCC4)c3c2)CC1,inhibition,"Concentration 49.75 uM, Number of replicates 2.0, Standard deviation 5.569 %",34.2%
same,inhibition,"Concentration 99.5 uM, Number of replicates 2.0, Standard deviation 2.729 %",52.7%
O=C(CCN(Cc1cccc(Cl)c1)C(=O)[C@H]1CCOC1)N1CCNCC1,inhibition,"Concentration 49.75 uM, Number of replicates 2.0, Standard deviation 12.724 %",4.08%
same,inhibition,"Concentration 99.5 uM, Number of replicates 2.0, Standard deviation 2.436 %",-3.96%
O=C(CCN(Cc1cccc(Cl)c1)C(=O)c1ccccc1F)N1CCNCC1,inhibition,"Concentration 49.75 uM, Number of replicates 2.0, Standard deviation 0.399 %",-0.625%
same,inhibition,"Concentration 99.5 uM, Number of replicates 2.0, Standard deviation 0.282 %",0.395%
C=CCn1c(Sc2ncnc3[nH]ccc23)nc2sccc2c1=O,inhibition,"Concentration 50.0 uM, Number of replicates 2.0, Standard deviation 0.219 %",6.3%
CC(C)[C@H]1N(c2ncnc3[nH]ccc23)CC12CCOCC2,inhibition,"Concentration 49.75 uM, Number of replicates 2.0, Standard deviation 0.024 %",27.6%
same,inhibition,"Concentration 99.5 uM, Number of replicates 2.0, Standard deviation 0.45 %",48%
c1ccc(-c2nc(CNc3cccnc3)cs2)nc1,inhibition,"Concentration 50.0 uM, Number of replicates 2.0, Standard deviation 0.432 %",-9.87%
O=C(NCC1(O)CCOCC1)c1cnn2ccc(C3CCN(C(=O)c4ccccc4)CC3)cc12,inhibition,"Concentration 49.75 uM, Number of replicates 2.0, Standard deviation 3.347 %",-3.96%
same,inhibition,"Concentration 99.5 uM, Number of replicates 2.0, Standard deviation 3.334 %",-1.1%
Cn1cc([C@H]2CSCCN2c2ncnc3[nH]ccc23)cn1,inhibition,"Concentration 49.75 uM, Number of replicates 2.0, Standard deviation 2.461 %",-6.49%
same,inhibition,"Concentration 99.5 uM, Number of replicates 2.0, Standard deviation 0.732 %",-3.46%
Cc1n[nH]cc1CN(C)C(=O)c1ccc(NC(=O)Nc2ccccc2)cc1,inhibition,"Concentration 49.75 uM, Number of replicates 2.0, Standard deviation 4.474 %",-3.77%
same,inhibition,"Concentration 99.5 uM, Number of replicates 2.0, Standard deviation 2.774 %",-0.031%
C[C@@]1(C(N)=O)CCCN1C(=O)c1cnn2ccc(C3CCN(C(=O)c4ccccc4)CC3)cc12,inhibition,"Concentration 49.75 uM, Number of replicates 2.0, Standard deviation 3.259 %",-8.04%
same,inhibition,"Concentration 99.5 uM, Number of replicates 2.0, Standard deviation 21.157 %",10.4%
Cc1[nH]c2ncnc(NC(=O)CCc3ccccc3)c2c1C,inhibition,"Concentration 50.0 uM, Number of replicates 2.0, Standard deviation 2.066 %",5.02%
O=C(N[C@@H](C(=O)O)[C@@H](O)Cc1ccccc1)c1ncnc2[nH]ccc12,inhibition,"Concentration 49.75 uM, Number of replicates 2.0, Standard deviation 1.324 %",3.79%
same,inhibition,"Concentration 99.5 uM, Number of replicates 2.0, Standard deviation 4.676 %",12.3%
Cc1cnc(C(=O)N(CCC(=O)N2CCNCC2)Cc2cccc(Cl)c2)nc1,inhibition,"Concentration 49.75 uM, Number of replicates 2.0, Standard deviation 2.063 %",-1.49%
same,inhibition,"Concentration 99.5 uM, Number of replicates 2.0, Standard deviation 9.956 %",6.47%
O=C(NCc1nc2cccnc2[nH]1)c1cnc2nc[nH]c(=O)c2c1,inhibition,"Concentration 50.0 uM, Number of replicates 2.0, Standard deviation 1.79 %",-1.99%
same,inhibition,"Concentration 100.0 uM, Number of replicates 2.0, Standard deviation 3.352 %",7.03%
Cc1nc(NC(=O)[C@@H]2CCCOC2)c2ccnc-2[nH]1,inhibition,"Concentration 50.0 uM, Number of replicates 2.0, Standard deviation 1.269 %",-3.2%
O=C(Cc1ccc(F)cc1)Nc1ccc2[nH]ncc2c1,inhibition,"Concentration 50.0 uM, Number of replicates 2.0, Standard deviation 1.625 %",1.14%
CO[C@@]1(C(=O)O)CCN(C(=O)c2ncnc3[nH]ccc23)C1,inhibition,"Concentration 50.0 uM, Number of replicates 2.0, Standard deviation 2.289 %",-4.18%
same,inhibition,"Concentration 100.0 uM, Number of replicates 2.0, Standard deviation 3.346 %",-3.71%
N[C@@H]1CCC[C@@H](C(=O)N(CCC(=O)N2CCNCC2)Cc2cccc(Cl)c2)C1,inhibition,"Concentration 49.75 uM, Number of replicates 2.0, Standard deviation 0.617 %",-0.755%
same,inhibition,"Concentration 99.5 uM, Number of replicates 2.0, Standard deviation 0.793 %",-1.47%
O=C(NC[C@@H]1CCCCN1)c1cnn2ccc(C3CCN(C(=O)c4ccccc4)CC3)cc12,inhibition,"Concentration 49.75 uM, Number of replicates 2.0, Standard deviation 3.98 %",-5.92%
same,inhibition,"Concentration 99.5 uM, Number of replicates 2.0, Standard deviation 0.917 %",-2.57%
O=C(C[C@@H](NC(=O)c1ncnc2[nH]ccc12)C1CC1)NCc1ccc(C(=O)O)cc1,inhibition,"Concentration 49.75 uM, Number of replicates 2.0, Standard deviation 1.213 %",-9.86%
same,inhibition,"Concentration 99.5 uM, Number of replicates 2.0, Standard deviation 0.076 %",0.768%
c1ccc2sc(CNc3ncnc4[nH]ccc34)nc2c1,inhibition,"Concentration 50.0 uM, Number of replicates 2.0, Standard deviation 5.906 %",-0.671%
Cc1nn(C)c(NCc2nc(CO)cs2)c1C#N,inhibition,"Concentration 50.0 uM, Number of replicates 2.0, Standard deviation 1.694 %",2.1%
O=C(c1cc(O)ncn1)N1CCC(c2ccn3ncc(C(=O)N4CCCCC4)c3c2)CC1,inhibition,"Concentration 49.75 uM, Number of replicates 2.0, Standard deviation 0.931 %",19.1%
same,inhibition,"Concentration 99.5 uM, Number of replicates 2.0, Standard deviation 1.95 %",30.9%
Cc1cc(NCc2csc(C)n2)ncn1,inhibition,"Concentration 50.0 uM, Number of replicates 2.0, Standard deviation 0.576 %",-4.64%
Cc1ccc(-c2n[nH]cc2CNc2cnc3[nH]ncc3c2)o1,inhibition,"Concentration 50.0 uM, Number of replicates 2.0, Standard deviation 33.024 %",7.23%
O=C1C[C@@]2(CCCN(c3ncnc4[nH]ccc34)C2)CN1,inhibition,"Concentration 50.0 uM, Number of replicates 2.0, Standard deviation 0.483 %",-2.45%
CCc1nc(CN(C)c2nc(C)nc3[nH]ccc23)cs1,inhibition,"Concentration 50.0 uM, Number of replicates 2.0, Standard deviation 3.767 %",-6.13%
O=C(c1cccnc1O)N1CCC(c2ccn3ncc(C(=O)N4CCCCC4)c3c2)CC1,inhibition,"Concentration 49.75 uM, Number of replicates 2.0, Standard deviation 3.415 %",-7.04%
same,inhibition,"Concentration 99.5 uM, Number of replicates 2.0, Standard deviation 3.017 %",-3.94%
O=C(CCN(Cc1cccc(Cl)c1)C(=O)[C@H]1C[C@H](O)C1)N1CCNCC1,inhibition,"Concentration 49.75 uM, Number of replicates 2.0, Standard deviation 2.648 %",-2.13%
same,inhibition,"Concentration 99.5 uM, Number of replicates 2.0, Standard deviation 5.781 %",-3.77%
Cc1cccc(C)c1-n1nnnc1CSc1ncnc2[nH]cnc12,inhibition,"Concentration 50.0 uM, Number of replicates 2.0, Standard deviation 4.544 %",6.63%
Cn1nc(C(=O)N2CCC(c3ccn4ncc(C(=O)N5CCCCC5)c4c3)CC2)cc1C(=O)O,inhibition,"Concentration 49.75 uM, Number of replicates 2.0, Standard deviation 1.938 %",42.7%
same,inhibition,"Concentration 99.5 uM, Number of replicates 2.0, Standard deviation 2.395 %",59.7%
O=C(Nc1cnc2[nH]ncc2c1)c1ccccc1CN1CCOCC1,inhibition,"Concentration 50.0 uM, Number of replicates 2.0, Standard deviation 2.919 %",-3.24%
COC[C@@H](Nc1ncnc2nc[nH]c12)c1ccc(C)o1,inhibition,"Concentration 49.75 uM, Number of replicates 2.0, Standard deviation 2.621 %",-4.64%
same,inhibition,"Concentration 99.5 uM, Number of replicates 2.0, Standard deviation 0.049 %",3.94%
C[C@@H](NC(=O)c1ncnc2[nH]ccc12)c1ncc(C(=O)O)c(=O)[nH]1,inhibition,"Concentration 49.75 uM, Number of replicates 2.0, Standard deviation 2.226 %",4.87%
same,inhibition,"Concentration 99.5 uM, Number of replicates 2.0, Standard deviation 1.623 %",10.7%
Brc1ccc(-n2nnnc2Sc2ncnc3[nH]ccc23)cc1,inhibition,"Concentration 50.0 uM, Number of replicates 2.0, Standard deviation 10.96 %",12.7%
Cc1cc(N)ncc1C(=O)N1CCC(c2ccn3ncc(C(=O)N4CCCCC4)c3c2)CC1,inhibition,"Concentration 49.75 uM, Number of replicates 2.0, Standard deviation 0.411 %",19.5%
same,inhibition,"Concentration 99.5 uM, Number of replicates 2.0, Standard deviation 3.667 %",32.6%
